Assay results from BindingDB's records for patent US10626112 (Ea Pharma, 2020).
pIC50: −log10 of the molar value.

The compounds below were run against Transient receptor potential cation channel subfamily A member 1 (Homo sapiens, UniProt O75762) (assay: Measurement of TRPA1 Antagonist Activity).
Protocol: The test substance was dissolved in dimethyl sulfoxide and serially diluted with an assay buffer containing 0.1% bovine serum albumin (1×HBSS, 20 mM HEPES, pH 7.2) to a 4.8-fold concentration of the evaluation concentration. Allylisothiocyanate, which is a known TRPA1 activator, was dissolved in dimethyl sulfoxide to 100 mM, and further diluted 5-fold (100 μM) of the final concentration, like the test substance.

Chain of Transient receptor potential cation channel subfamily A member 1 (O75762 whole entry): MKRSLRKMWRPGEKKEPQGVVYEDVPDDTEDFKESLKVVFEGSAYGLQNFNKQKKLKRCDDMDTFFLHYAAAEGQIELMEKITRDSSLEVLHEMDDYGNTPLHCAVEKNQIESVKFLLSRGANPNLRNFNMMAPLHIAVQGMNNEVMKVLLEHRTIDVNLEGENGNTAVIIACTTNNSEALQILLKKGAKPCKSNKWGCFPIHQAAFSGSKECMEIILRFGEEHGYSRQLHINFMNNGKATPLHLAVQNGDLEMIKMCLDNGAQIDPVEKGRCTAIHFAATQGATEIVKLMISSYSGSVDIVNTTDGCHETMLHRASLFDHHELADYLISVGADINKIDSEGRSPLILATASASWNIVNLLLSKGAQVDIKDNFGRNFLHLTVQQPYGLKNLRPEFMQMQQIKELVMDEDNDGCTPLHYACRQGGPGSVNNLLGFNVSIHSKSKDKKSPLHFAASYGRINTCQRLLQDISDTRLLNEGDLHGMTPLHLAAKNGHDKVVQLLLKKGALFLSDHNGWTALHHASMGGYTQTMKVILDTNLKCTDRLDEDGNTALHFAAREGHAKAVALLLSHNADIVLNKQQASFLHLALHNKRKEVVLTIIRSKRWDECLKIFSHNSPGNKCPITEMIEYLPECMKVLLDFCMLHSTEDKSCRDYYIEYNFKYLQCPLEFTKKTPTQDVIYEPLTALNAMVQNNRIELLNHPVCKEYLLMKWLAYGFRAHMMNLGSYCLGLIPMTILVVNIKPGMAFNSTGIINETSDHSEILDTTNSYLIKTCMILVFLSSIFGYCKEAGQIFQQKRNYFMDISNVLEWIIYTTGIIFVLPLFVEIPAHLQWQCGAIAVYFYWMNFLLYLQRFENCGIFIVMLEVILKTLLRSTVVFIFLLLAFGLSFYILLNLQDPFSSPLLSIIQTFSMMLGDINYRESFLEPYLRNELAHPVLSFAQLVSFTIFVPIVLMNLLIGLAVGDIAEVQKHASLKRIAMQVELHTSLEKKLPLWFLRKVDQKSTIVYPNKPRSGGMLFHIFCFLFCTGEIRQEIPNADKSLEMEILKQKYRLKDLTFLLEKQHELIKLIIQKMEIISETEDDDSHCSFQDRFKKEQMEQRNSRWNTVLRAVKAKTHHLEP

In order of rising pIC50:
1. O=C(CN(Cc1ncco1)S(=O)(=O)c1cc2cc(F)ccc2o1)NCc1cc(-c2ccc(C(F)(F)F)cn2)ccn1 [US10626112, Example 351]  6.00
2. O=C(CN(Cc1ccccc1)S(=O)(=O)c1cc2cc(F)ccc2o1)NCc1cc(-c2ccc(C(F)(F)F)cn2)ccn1 [US10626112, Example 350]  6.20
3. O=C(CN(Cc1cnccn1)S(=O)(=O)c1cc2cc(F)ccc2o1)NCc1cc(-c2ccc(C(F)(F)F)cc2)ncn1 [US10626112, Example 361]  6.33
4. O=C(CN(Cc1ccccc1)S(=O)(=O)c1cc2cc(F)ccc2o1)NCc1cc(-c2ccc(C(F)(F)F)cc2)ncn1 [US10626112, Example 352]  6.39
5. CC(C)(C)OC[C@H](NS(=O)(=O)c1cc2cc(F)ccc2o1)C(=O)NCc1cc(-c2ccc(C(F)(F)F)cc2)ncn1 [US10626112, Example 415]  6.39
6. O=C(CN(Cc1ncco1)S(=O)(=O)c1cc2cc(F)ccc2o1)NCc1cc(-c2ccc(C(F)(F)F)cc2)ncn1 [US10626112, Example 354]  6.42
7. CC(C)OCCN(CC(=O)NCc1cc(-c2ccc(C(F)(F)F)cn2)ccn1)S(=O)(=O)c1cc2cc(F)ccc2o1 [US10626112, Example 356]  6.72
8. O=C(CN(CC1CCNC1)S(=O)(=O)c1cc2cc(F)ccc2o1)NCc1cc(-c2ccc(C(F)(F)F)cc2)ncn1 (centres undefined) [US10626112, Example 425]  6.72
9. O=C(NCc1ccnc(-c2ccc(COCC(F)(F)F)nc2)c1)[C@@H]1CCCN1S(=O)(=O)c1cc2ccccc2o1 [US10626112, Example 331]  6.77
10. O=C(NCc1cccc(OCc2ccc(N3CCOCC3)nc2)c1)[C@@H]1CCCN1S(=O)(=O)c1cc2cc(F)ccc2o1 [US10626112, Example 22]  6.96
11. CC(C)OCCN(CC(=O)NCc1cc(-c2ccc(C(F)(F)F)cc2)ncn1)S(=O)(=O)c1cc2cc(F)ccc2o1 [US10626112, Example 358]  6.96
12. COCCN(CC(=O)NCc1cc(-c2ccc(C(F)(F)F)cn2)ccn1)S(=O)(=O)c1cc2cc(F)ccc2o1 [US10626112, Example 355]  7.00
13. O=C(NCc1cc(-c2ccc(C(F)(F)F)cc2)ncn1)[C@@H]1CCCN1S(=O)(=O)c1cc2ccncc2o1 [US10626112, Example 347]  7.13
14. O=C(NCc1cccc(CSc2ccc(C(F)(F)F)cc2)c1)[C@@H]1CCCN1S(=O)(=O)c1cc2ccccc2o1 [US10626112, Example 299]  7.62
